The IC50 is the concentration at which inhibition is half-maximal.

One data set deals with T1, Human BACE (Homo sapiens, UniProt P56817).
T1 construct: Recombinant BACE (extracellular domain, expressed in baculovirus and purified using standard methods); made in house
In words: Test 1: Inhibition of Human BACE. The format is biochemical. To be noted: test not given; follows Tests 1-4, assumed BACE. The procedure:
Test 1: Inhibition of Human BACE
Recombinant BACE (extracellular domain, expressed in baculovirus and purified using standard methods) at 6 nM concentration is incubated with the test compound at various concentrations for 1 hour at room temperature in 100 mM acetate buffer, pH 4.5, containing 0.1% CHAPS. Synthetic peptide substrate Mca-Ser-Glu-Val-Asn-Leu-Asp-Ala-Glu-Phe-Lys(DNP) is added to a final concentration of 3 μM and the increase in fluorescence is recorded at excitation of 325 nm and emission at 400 nm in a microplate spectro-fluorimeter for 20 minutes in 1-minute intervals. IC50 values are calculated from percentage of inhibition of BACE-activity as a function of the test compound concentration.

The conditions of data set [1]: rcm bond, DCM, 40.0 °C.

The structures appear in SMILES notation. Read-outs that look alike come from different tables or passages of the source.

T1 sequence (P56817 46-457 limits assumed): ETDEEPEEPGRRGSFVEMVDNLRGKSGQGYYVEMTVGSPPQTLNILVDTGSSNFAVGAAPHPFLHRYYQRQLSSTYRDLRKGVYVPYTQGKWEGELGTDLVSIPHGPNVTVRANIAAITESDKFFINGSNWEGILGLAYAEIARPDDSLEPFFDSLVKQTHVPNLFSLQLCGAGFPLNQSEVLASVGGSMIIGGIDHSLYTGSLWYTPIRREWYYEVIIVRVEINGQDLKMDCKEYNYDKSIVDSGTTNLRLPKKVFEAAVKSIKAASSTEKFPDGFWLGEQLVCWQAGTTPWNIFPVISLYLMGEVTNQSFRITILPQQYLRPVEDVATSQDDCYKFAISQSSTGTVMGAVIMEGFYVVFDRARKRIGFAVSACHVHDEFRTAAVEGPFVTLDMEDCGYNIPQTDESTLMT

On Human BACE, `Cc1cc2cc(n1)NCCCCc1cccc(c1)C[C@@H]([C@H](O)CNCc1cccc(C(C)C)c1)NC2=O` [Example 11, (S)-4-[(R)-1-Hydroxy-2-(3-isopropyl-benzylamino)-ethyl]-18-methyl-3,15,17-triaza-tricyclo[14.3.1.1*6,10*]henicosa-1(19),6,8,10(21),16(20),17-hexaen-2-one] returned an IC50 of 40 nM.

As to `COc1ccc2cc1CC=CCN(C(C)=O)c1cc(cc(Cl)n1)C(=O)N[C@H]([C@H]1CN(Cc3cccc(C(C)C)c3)C(=O)O1)C2`, the ring closure, yield of all isomers in data set [1] (from C=CCc1cc(C[C@H](NC(=O)c2cc(Cl)nc(N(CC=C)C(C)=O)c2)[C@H]2CN(Cc3cccc(C(C)C)c3)C(=O)O2)ccc1OC, Grubbs II (tricyclohexylphosphine[1,3-bis(2,4,6-trimethylphenyl)-4,5-dihydroimidazol-2-ylidene][benzylidene]ruthenium(IV) dichloride), 3.45 mM, 6.0 h) stood at 77.6%.

For the compound `CN(C)C(=O)c1cc2cc(c1)C(=O)N[C@H]([C@H](O)CCl)Cc1cccc(c1)OCC=CCO2`, in data set [1] (from C=CCOc1cccc(C[C@H](NC(=O)c2cc(OCC=C)cc(C(=O)N(C)C)c2)[C@H](O)CCl)c1, Grubbs II, 18.9 mM, 1.5 h), the ring closure, yield of all isomers came out at 70%.

For the origin of these results see patent US20080132477A1, “Macrocyclic Compounds Useful as Bace Inhibitors” (priority 2005, published 2008).
